Legend:
Type in all cases: in vivo
CD-1 mice [1] = experiment: Nociceptive pain: acute pain induced by pH 5.0 acid solution, mechanical hyperalgesia by von Frey filaments; settings: for paw withdrawal threshold (PWT): control 4.0±0 g; for effective dosage: intraplantar, acute pain induced by acid solution
Description: Naphtho[2,3-f]quinoxaline-7,12-dione compound was intraplantarly injected into the right hind paws of 8 to 12-week-old CD-1 mice. 5 minutes after the injection, 25 μL of pH 5.0 acid solution was intraplantarly injected into each of the mice. About 60 minutes later, the mice were directly tested with the hypersensitivity to mechanical stimuli using von Frey filaments (Touch-Test North Coast Medical, Inc., Margan Hill, Calif.). The control group was conducted under the same conditions except it was treated with a compound-free saline. The results are shown in FIG. 1, where the injection of 25 μL of the pH 5.0 acid solution induced mechanical hyperalgesia in the right hind paw of the mice, and the paw withdrawal threshold (PWT) of these mice was 1.1±0.065 g. By injecting 2.2 μg/kg of the naphtho[2,3-f]quinoxaline-7,12-dione (NSC745887, D1) compound intraplantarly into the right hind paws of the mice, the paw withdrawal threshold of those mice recovered to 4.0±0 g (PWT of control group mice was 4.0±0 g).
25 μL of acid solution with a pH of 5.0 was injected into 8 to 12-week-old CD-1 mice in order to induce mechanical hyperalgesia. Mice injected with saline were the control group; the ones that were injected with compound only were compound group; the ones that were injected with only the acid solution were the acid group and those injected with both compound and the acid solution were the acid+compound group.
The above-mentioned 1 M of pH 5.0 solution was prepared by dissolving 1.952 g of 2-(N-morpholino)ethanesulfonic acid (MES) in 10 mL of sterilized secondary water. The pH of the solution was adjusted to 5.0 using 1N NaOH solution. Before injection, pH5.0 was diluted with saline into 10 mM.
(§1) 2.2 μg/kg of the compound was administered to the mice by intraplantar injection about 5 minutes prior to the injection of the acid solution. An hour after the injection of the acid, the hypersensitivity of the mice to mechanical stimuli was measured using von Frey filaments (Touch-Test North Coast Medical, Inc., Margan Hill, Calif.). The mice were placed in transparent plastic chambers (10×8×10 cm) on a metal mesh floor at least 30 minutes per day for 2 days to acclimatize them to the testing room prior to the test. 60 minutes after the mice were administered with the compound, the mechanical hyperalgesia was assessed through the measurement of paw withdrawal frequencies by a sequential series of von Frey filaments of weights 0.6, 1.0, 1.4, 2.0 and 4.0 g applied perpendicularly to the plantar surface of the paw. The paw was briefly stimulated with force sufficient to slightly bend the filaments and a single trial consisted of repeated applications of the von Frey filaments five times, each application lasting for about 5 seconds. The occurrence of paw withdrawal resulting from the stimulation or removing the stimulation for each trial was quantified as a percentage response frequency for each filament. When the frequency was more than 50%, the weight of the von Frey filaments was determined as the paw withdrawal threshold (PWT). To make sure all the mice were under normal physical conditions, all housing conditions complied with general feeding standards, and the temperature and illumination were maintained in a suitable range.

CD-1 mice [2] = experiment: Neuropathic pain: chronic constriction injury (CCI) of the sciatic nerve, mechanical hyperalgesia by von Frey filaments; settings: for paw withdrawal threshold (PWT): one week after CCI
From the text: The assessment of the effectiveness of the compound for alleviating neuropathic pain used the animal model of chronic constriction injury (CCI) of the sciatic nerve, which was established by Bennett and Xie (1988). After the surgery, the mice developed long-lasting hypersensitivity to mechanical stimuli (chronic mechanical hyperalgesia), even being lightly touched. The mechanical hyperalgesia test was used to evaluate the analgesic effect of the compound.
The mice, after a week following the surgery, were intraplantarly injected with a series of different dosages of the naphtho[2,3-f]quinoxaline-7,12-dione compound, […], or the mice were injected with 2.2 μg/kg of compound intrathecally, or with 43 μg/kg of the compound intraperitoneally. The hypersensitivity to mechanical stimuli was measured using von Frey filaments at 60 minutes after the injection. The mice injected with saline following surgery were the control group and the other mice injected with gabapentin following surgery were the positive control group.
as §1
According to the method described by Bennett and Xie, Pain, 1988, 33, 87-107, 8 to 12-week-old CD-1 mice were subjected to the chronic constriction injury (CCI) of the sciatic nerve, which is an animal model inducing chronic neuropathic pain. To anesthetize the mice, each of the mice was injected with 240 mg/kg of 2,2,2-tribromoethanol (Avertin). Then three ligatures were loosely tied around the sciatic nerve of the mouse with chromic gut. The surgical procedure for the Sham (non ligation) control group was identical to that mentioned above except that the sciatic nerves were not ligated. A week after the mice in the experimental (CCI+compound) group had chronic constriction injury of sciatic nerves, the compound was intraplantarly, intrathecally, or intraperitoneally injected into the mice. 60 minutes after the injection, the mice were directly subjected to the hypersensitivity test to mechanical stimuli. The mice under the surgery treated with saline were the CCI group; the mice treated with gabapentin were the positive control (CCI+Gabapentin) group.

mice = experiment: Inflammatory pain: chronic inflammatory pain induced by Complete Freund's Adjuvant (CFA), mechanical hyperalgesia by von Frey filaments
Description: When 50% CFA was intraplantarly injected into the mouse, paw edema and chronic mechanical hyperalgesia were developed in the tested mice. Different dosages of the naphtho[2,3-f]quinoxaline-7,12-dione compound, 0.22, 2.2, 22 μg/kg were intraplantarly injected into mouse hindpaw, followed by 50% CFA injection. At 60 minutes after the CFA injection, the hypersensitivity of the mice to mechanical stimuli was measured using von Frey filaments.
as §1
To induce paw edema and chronic inflammatory pain, 25 μL of 50% Complete Freund's Adjuvant (CFA) in saline was intraplantarly injected into the right hind paw of the mouse. […] 60 minutes after the CFA injection, the hypersensitivity to mechanical stimuli was measured using von Frey filaments.

[3] = 2.2 μg/kg intraplantar once every week for three weeks, FIG. 3

`Cc1nc2ccc3c(c2nc1C)C(=O)c1ccccc1C3=O` [C3, 2,3-dimethylnaphtho[2,3-f]quinoxaline-7,12-dione] was tested, and the “paw withdrawal threshold (PWT)” value (CD-1 mice [1]; 24 μg/kg intraplantar, then pH 5.0 acid solution, FIG. 1B) was 2.0 ± 0 g, the effective dosage (CD-1 mice [1]) was 24 µg/kg and the “paw withdrawal threshold (PWT)” value (CD-1 mice [2]; 24 μg/kg intraplantar, FIG. 2B) was 1.4 g. For the same compound, the “paw withdrawal threshold (PWT)” value (mice; 24 μg/kg intraplantar before CFA, FIG. 4B) was 1.4 g.
For `O=C1c2ccccc2C(=O)c2c1ccc1nccnc21` [D1, naphtho[2,3-f]quinoxaline-7,12-dione], the “paw withdrawal threshold (PWT)” value (CD-1 mice [1]; 2.2 μg/kg intraplantar, 5 min before pH 5.0 acid solution, about 60 min later, acid only 1.1±0.065 g) was 4.0 ± 0 g, the effective dosage (CD-1 mice [1]) was 2.2 µg/kg and the “paw withdrawal threshold (PWT), compound without acid solution” value (CD-1 mice [1]; sole injection of the compound without the acid solution, did not induce pain) was 4.0 ± 0 g. For the same compound, the “tolerance to the compound” value (CD-1 mice [2]; 2.2 μg/kg intraplantar once every week for three weeks) was “no obvious indication that the mice developed tolerance”, the “paw withdrawal threshold (PWT), first week” value (CD-1 mice [2]; [3]) was 3.3 ± 0.67 g and the “paw withdrawal threshold (PWT), second week” value (CD-1 mice [2]; [3]) was 3.3 ± 0.67 g. The “paw withdrawal threshold (PWT), third week” value (CD-1 mice [2]; [3]) was 3.0 ± 0.1 g, the “paw withdrawal threshold (PWT)” value (CD-1 mice [2]; 2.2 μg/kg intraplantar, 60 min after injection, FIG. 2A, CCI 0.9±0.23 g, control 3.6±0.29 g) was 3.3 ± 0.67 g and the “paw withdrawal threshold (PWT)” value (CD-1 mice [2]; 2.2 μg/kg intraplantar, FIG. 2B, CCI 0.9±0.23 g) was 2.0 ± 0 g. For the same compound, the “paw withdrawal threshold (PWT)” value (CD-1 mice [2]; 2.2 μg/kg intrathecal, FIG. 2A) was 2.0 g, the “paw withdrawal threshold (PWT)” value (CD-1 mice [2]; 22 μg/kg intraplantar, FIG. 2A) was 3.3 ± 0.67 g and the “inhibition of mechanical hyperalgesia induced by CCI” value (CD-1 mice [2]; 43 μg/kg intraperitoneal) was “completely inhibited mechanical hyperalgesia”. For the same compound, the “paw withdrawal threshold (PWT)” value (mice; 2.2 μg/kg intraplantar before 50% CFA, 60 min after CFA, FIG. 4A, CFA 0.4±0.033 g, control 3.8±0.171 g) was 1.1 ± 0.15 g, the “paw withdrawal threshold (PWT)” value (mice; 22 μg/kg intraplantar before 50% CFA, FIG. 4A) was 2.0 ± 0.411 g and the “paw withdrawal threshold (PWT)” value (mice; 22 μg/kg intraplantar before CFA, FIG. 4B, control 3.8±0.171 g) was 2.3 g.
For `O=C1c2ccccc2C(=O)c2c1ccc1[nH]c(=O)c(=O)[nH]c21` [D2, naphtho[2,3-f]quinoxaline-2,3,7,12(1H,4H)-tetraone], the “paw withdrawal threshold (PWT)” value (CD-1 mice [1]; 24.3 μg/kg intraplantar, then pH 5.0 acid solution, FIG. 1C) was 4.0 ± 0 g, the effective dosage (CD-1 mice [1]) was 24.3 µg/kg and the “paw withdrawal threshold (PWT)” value (CD-1 mice [2]; 24.3 μg/kg intraplantar, FIG. 2B) was 2.0 ± 0 g. For the same compound, the “paw withdrawal threshold (PWT)” value (mice; 24.3 μg/kg intraplantar before CFA, FIG. 4B) was 1.0 g.
With `NCC1(CC(=O)O)CCCCC1` [gabapentin, reference compound] the “dose required to inhibit chronic mechanical hyperalgesia caused by CCI” value (CD-1 mice [2]; intraperitoneal injection) was “at least 15,000 μg/kg”.
